Measured values from US10919841B2, “Monoamine reuptake inhibitors” (Research Triangle Institute, priority 2009, dated 2021).
pIC50, pKi: −log10 of the molar value. Read-outs that look alike come from different tables or passages of the source.

Experiments:
(h)DAT [1] = molecular target: T1, (h)DAT (Homo sapiens, UniProt Q01959); experiment: block of [3H]dopamine reuptake in HEK-(h)DAT cells; type: cell-based
T1 construct: expressed in transfected cells

mice [2] = experiment: locomotor activity, 8-h time course protocol; type: in vivo; conditions: for ED50 / Emax: Mus musculus; for ED50: read-out: Locomotor Activity 8-Hour ED50; for Emax: read-out: Locomotor Activity 8-Hour % Peak Cocaine, percent of cocaine's maximal effect, 30 min period of maximum stimulation; for Locomotor Activity 8-Hour Time, min Period, length: duration of locomotor activity; for Locomotor Activity 8-Hour Time, min Period, max: time period of maximum effect; for locomotor stimulant activity across the 1-h and 8-h protocols, in words: 1-h and 8-h tests compared
rats [3] = experiment: cocaine discrimination (2-lever operant), i.p. administration; conditions: for responders at 5 mg/kg / responders at 10 mg/kg / responders at 25 mg/kg / ED50 / responders at 50 mg/kg: Rattus norvegicus, ip; for responders at 5 mg/kg / responders at 10 mg/kg / responders at 25 mg/kg / responders at 50 mg/kg: read-out: % cocaine lever responding
rats [4] = experiment: cocaine discrimination time-course study, oral administration; conditions: for ED50: Rattus norvegicus, po, 0.75 h; for generalization to cocaine: p.o., 50 mg/kg
(h)DAT [5] = molecular target: T1, (h)DAT; experiment: competition binding with [125I]RTI-55 at (h)DAT stably expressed in HEK293 cells; conditions: mean ± standard error of three independent experiments
mice [6] = experiment: locomotor activity, 1-h observation protocol; type: in vivo; conditions: Mus musculus; for Emax: 0.5 h, read-out: Locomotor Activity 1-Hour % Peak Cocaine; for ED50: dose to produce 50% of the compound's maximal effect, 1-h
(h)NET [7] = molecular target: T2, (h)NET (Homo sapiens, UniProt P23975); experiment: block of [3H]norepinephrine reuptake in HEK-(h)NET cells; conditions: read-out: Uptake, IC50 [3H]NE; mean ± standard error of three independent experiments
(h)NET [8] = molecular target: T2, (h)NET; experiment: competition binding with [125I]RTI-55 at (h)NET stably expressed in HEK293 cells; conditions: read-out: Binding, Ki NET; mean ± standard error of three independent experiments
[9] = mean ± standard error of three independent experiments, read-out: Uptake, IC50 [3H]DA
[10] = dose to produce 50% of the compound's maximal effect, 8-h
[11] = read-out: Full Generalization ED50
[12] = [3H]DA, read-out: IC50 for DA uptake inhibition

T2 sequence (P23975 whole entry): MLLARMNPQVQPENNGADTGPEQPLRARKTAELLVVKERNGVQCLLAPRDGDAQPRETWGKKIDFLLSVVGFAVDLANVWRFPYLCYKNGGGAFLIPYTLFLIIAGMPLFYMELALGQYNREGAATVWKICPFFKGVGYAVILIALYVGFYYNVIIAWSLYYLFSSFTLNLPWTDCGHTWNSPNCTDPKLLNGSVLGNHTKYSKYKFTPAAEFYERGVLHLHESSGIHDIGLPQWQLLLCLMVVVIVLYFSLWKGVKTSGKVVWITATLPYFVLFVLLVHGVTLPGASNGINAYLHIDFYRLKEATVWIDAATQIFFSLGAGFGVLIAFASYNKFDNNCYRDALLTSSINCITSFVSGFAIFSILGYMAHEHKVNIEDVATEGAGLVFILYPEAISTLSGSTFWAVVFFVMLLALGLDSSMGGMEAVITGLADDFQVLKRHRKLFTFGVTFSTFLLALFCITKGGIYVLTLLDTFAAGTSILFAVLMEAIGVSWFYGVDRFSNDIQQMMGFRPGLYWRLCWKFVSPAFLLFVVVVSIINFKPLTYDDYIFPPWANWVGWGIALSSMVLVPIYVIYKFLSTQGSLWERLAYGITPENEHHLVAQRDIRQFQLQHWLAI
T1 sequence (Q01959 whole entry): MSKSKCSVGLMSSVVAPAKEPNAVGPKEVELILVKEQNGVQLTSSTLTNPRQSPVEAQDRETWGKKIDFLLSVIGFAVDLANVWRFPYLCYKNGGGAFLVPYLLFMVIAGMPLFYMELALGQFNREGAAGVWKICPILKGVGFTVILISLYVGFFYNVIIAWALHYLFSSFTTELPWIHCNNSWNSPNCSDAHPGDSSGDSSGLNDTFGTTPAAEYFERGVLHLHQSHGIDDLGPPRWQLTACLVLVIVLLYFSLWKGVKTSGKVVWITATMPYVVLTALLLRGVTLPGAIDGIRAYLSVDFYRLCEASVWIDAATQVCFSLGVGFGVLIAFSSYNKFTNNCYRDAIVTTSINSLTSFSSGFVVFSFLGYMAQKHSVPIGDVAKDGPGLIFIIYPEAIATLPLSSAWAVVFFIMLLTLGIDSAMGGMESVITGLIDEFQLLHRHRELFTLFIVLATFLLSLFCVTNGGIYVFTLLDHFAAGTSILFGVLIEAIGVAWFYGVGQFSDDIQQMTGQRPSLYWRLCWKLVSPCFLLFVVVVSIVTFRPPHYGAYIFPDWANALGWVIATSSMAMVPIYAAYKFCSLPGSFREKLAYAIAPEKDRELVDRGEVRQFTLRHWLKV

| SMILES | Emax (mice [2]) [%] | Locomotor Activity 8-Hour Time, min Period, length (mice [2]) [min] | Locomotor Activity 8-Hour Time, min Period, max (mice [2]) [min] | responders at 5 mg/kg (rats [3]) [%] | responders at 10 mg/kg (rats [3]) [%] | responders at 25 mg/kg (rats [3]) [%] | ED50 (rats [4]) [mg/kg] | pKi ((h)DAT [5]) | pIC50 ((h)DAT [1]; [9]) | Emax (mice [6]) [%] | ED50 (mice [6]) [mg/kg] | locomotor stimulant activity across the 1-h and 8-h protocols, in words (mice [2]) | ED50 (mice [2]; [10]) [mg/kg] | pIC50 ((h)NET [7]) | ED50 (rats [3]; [11]) [mg/kg] | pKi ((h)NET [8]) | also measured |
| --- | --- | --- | --- | --- | --- | --- | --- | --- | --- | --- | --- | --- | --- | --- | --- | --- | --- |
| CC(NC(C)(C)C)C(=O)c1cccc(Cl)c1 (racemic) [Compound 2a, (±)-2-tert-butylamino-3′-chloropropiophenone, reference compound] | > 84 | 130 to 270 | 0 to 30 | 0 | 67 | 66 | 23.2 |  |  |  |  |  |  |  |  |  | times less potent inhibitor of DA uptake than cocaine ((h)DAT [1]; relative to cocaine): 3.5 times; ED50 (mice [2]; 8 h): 6.5 mg/kg; generalization to the cocaine cue, in words (rats [3]; i.p.): substituted only partially; cocaine-appropriate responding (rats [3]; i.p., 10 mg/kg): 67%; response rate, in words (rats [3]; i.p., dose range given in the value): increased relative to vehicle control following 5-25 mg/kg; ED50 (rats [4]; read-out: ED50 for drug-appropriate responding): 23.2 mg/kg; generalization to cocaine (rats [4]; 45 min): full generalization; generalization to cocaine (rats [4]; 90 min): partial generalization |
| CC(NC(C)(C)C)C(=O)c1ccccc1 (centres unmarked) [Compound 2b, 2-(N-tert-Butylamino)propiophenone] | 98 |  | 0 to 30 | 3 | 83 | 83 | 25.6 | 5.24 | 5.64 | 120 | 8.1 | strong stimulants in both studies | 10.5 | 5.06 | 5.65 | 5.24 |  |
| CC(NC(C)(C)C)C(=O)c1cccc(F)c1 (centres unmarked) [Compound 2c, 2-(tert-Butylamino)-3′-fluoropropiophenone] | 90 | 150 | 0 to 30 | 1 | 0 | 50 | 27.1 | 5.35 | 5.84 | 84 | 16.1 | strong stimulants in both studies | 16.6 |  | 10.8 |  | responders at 50 mg/kg (rats [3]): 10% |
| CC(C(=O)c1cccc(Cl)c1)N(C)C(C)(C)C (centres unmarked) [Compound 2cc, 2-(N-Methyl-N-tert-butylamino)-3′-chloropropiophenone] | 67 | 200 to 340 | 80 to 110 | 0 | 49 | 50 |  | 5.19 | 5.69 | 78 | 14.9 | weak stimulants in both tests | 11.2 |  |  |  |  |
| CC(NC(C)(C)C)C(=O)c1cccc(Br)c1 (centres unmarked) [Compound 2d, 2-(N-tert-Butylamino)-3′-bromopropiophenone] | 57 | 120 | 0 to 30 | 1 | 27 | 83 | 52.4 | 5.38 |  | 72 | 10.6 | weak stimulants in both tests | 12.9 | 5.19 | 11.4 |  | pIC50 ((h)DAT [1]; [12]): 6.02 |
| CC(C(=O)c1cccc(Cl)c1)N(C)C (centres unmarked) [Compound 2dd, 2-(N,N-Dimethylamino)-3′-chloropropiophenone] | 52 | 180 to 190 | 90 to 120 | 0 | 83 | 83 | 5.36 | 5.38 |  | 100 | 11 | activity similar to cocaine in the 1-h protocol but weakened significantly in the 8-h time-course study | 13.9 | 5.90 | 4.84 | 5.51 | pIC50 ((h)DAT [1]; [12]): 5.81; responders at 50 mg/kg (rats [3]): 10%; ED50 (rats [3]; read-out: ED50 for cocaine generalization): 4.84 mg/kg |
| Cc1cccc(C(=O)C(C)NC(C)(C)C)c1 (centres unmarked) [Compound 2e, 2-(N-tert-Butylamino)-3′-methylpropiophenone] |  |  |  |  |  |  |  |  |  | 76 | 31 |  |  |  |  |  |  |
| CCN(CC)C(C)C(=O)c1cccc(Cl)c1 (centres unmarked) [Compound 2ee, 2-(N,N-Diethylamino)-3′-chloropropiophenone] | 90 | 130 to 240 | 20 to 50 | 1 | 66 | 82 |  | 5.65 | 5.76 | 55 | 16.6 | moderate activity in the 1-h test with increased activity in the time-course study | 20 | 5.34 | 5.88 | 5.35 |  |
